CC(=O)O[C@]1(C(C)=O)CC[C@H]2[C@@H]3C[C@H](C)C4=CC(=O)CC[C@]4(C)[C@H]3CC[C@@]21C
solubility (mole fraction)
Conditions	278.15 K	283.15 K	288.15 K	293.15 K	298.15 K	303.15 K	308.15 K	313.15 K	318.15 K	323.15 K
in acetone	0.00469	0.00547	0.00618	0.00716	0.0083	0.00959	0.0112	0.0126	0.0144	0.0164
in acetonitrile	0.00283	0.00339	0.00397	0.00473	0.0056	0.00664	0.00785	0.0092	0.0109	0.013
in ethanol	0.000465	0.000655	0.000831	0.00106	0.00135	0.00168	0.00211	0.00267	0.0034	0.0043
in ethyl acetate	0.00327	0.00385	0.00446	0.00515	0.00584	0.00671	0.00773	0.00887	0.0102	0.0118
in isobutanol	0.000675	0.00085	0.00121	0.00157	0.00202	0.00269	0.00351	0.00463	0.00611	0.00789
in isobutyl acetate	0.00292	0.00334	0.0039	0.00443	0.005	0.00574	0.00654	0.00736	0.00849	0.00979
in isopropanol	0.000451	0.000651	0.000754	0.000945	0.00126	0.00166	0.00217	0.00281	0.00373	0.00477
in isopropyl acetate	0.00234	0.00273	0.00317	0.00367	0.00428	0.00497	0.00567	0.00657	0.00751	0.00866
in methanol	0.000588	0.000719	0.000887	0.0011	0.00135	0.00165	0.00202	0.0025	0.00309	0.00381
in methyl acetate	0.00351	0.00415	0.00479	0.00557	0.00649	0.00748	0.00866	0.00999	0.0115	0.0131
in n-butanol	0.000757	0.000978	0.00131	0.00168	0.0022	0.00277	0.00356	0.0046	0.0059	0.00753
in n-butyl acetate	0.00296	0.0035	0.00406	0.00462	0.00538	0.00622	0.00716	0.00829	0.00958	0.0111
in n-propanol	0.000683	0.00089	0.00114	0.00148	0.00188	0.00245	0.0031	0.00395	0.00508	0.00648
in n-propyl acetate	0.0032	0.00384	0.00446	0.00517	0.0059	0.00682	0.00791	0.00917	0.0105	0.012

— BigSolDB 2.1
